Reference: publication PMC11125359 (Pharmaceuticals, 2024)
Where two headings read alike, the source gives them in different places.

Legend:
[1] = DPPH radical-scavenging activity; details: read-out: DPPH (IC50); mean ± SE, three replicates
Experimental: In vitro biological activities
(§1) The 1,1-Diphenyl-2-picryl-hydrazyl (DPPH) radical scavenging activities were evaluated using the method described by Rahman et al. An antioxidant substance capable of donating a
(§2) hydrogen atom to a solution containing DPPH- can reduce the stable free radical, causing the solution
(§3) to change color from violet to pale yellow. The remaining DPPH- radical was quantified by
(§4) nm using a spectroscopic method. Two milliliters of a DPPH solution (100 µM) in ethanol were mixed
(§5) with 2 mL of the sample (at each concentration). The reaction mixture for each concentration was
(§6) thoroughly vortexed and then incubated in the dark at room temperature for 30 minutes. The
(§7) absorbance was then measured spectrophotometrically at 518 nm against a blank (ethanol). For the
(§8) control, 2 mL of ethanol was added instead of the sample and run simultaneously with the test.
(§9) Ascorbic acid was used at the same concentrations as a positive control. Percent inhibition of the
(§10) DPPH free radical was calculated. The median inhibitory concentration (IC 50) for each tested

[2] = target: bovine serum albumin (BSA) (Bos taurus, UniProt P02769); details: equal concentrations (1000 µg/mL); mean ± SE
[3] = tested on: human lung cancer (A549) cell line; assay: Cytotoxic activity, MTT assay, lung (A549); details: for Viability %, A549, 1st concentration: Conc.: 5a 13.45, 5d 12.64, 5e 12.29, 5f 11.81, 7a 12.72, 7f 11.24, DOX 11.50; for Viability %, A549, 2nd concentration: Conc.: 5a 26.91, 5d 25.27, 5e 24.58, 5f 23.63, 7a 25.43, 7f 22.48, DOX 23.00; for Viability %, A549, 3rd concentration: Conc.: 5a 53.81, 5d 50.55, 5e 49.15, 5f 47.26, 7a 50.86, 7f 44.96, DOX 46.00; for Viability %, A549, 4th concentration: Conc.: 5a 107.63, 5d 101.09, 5e 98.31, 5f 94.51, 7a 101.72, 7f 89.93, DOX 91.99; for Viability %, A549, 5th concentration: Conc.: 5a 215.26, 5d 202.19, 5e 196.61, 5f 189.03, 7a 203.44, 7f 179.85, DOX 183.99; for IC50: Homo sapiens, A549, 48 h, read-out: Cytotoxic activity IC50, Lung (A549)
Experimental: It will be assayed against human lung cancer (A549) and colon (Caco-2) cell line in
comparison with normal lung (WI-38) cell line using 3-(4,5-dimethythiazol-2-yl)-2,5-diphenyl
tetrazolium bromide (MTT) assay by determining the optical density (OD) at 570 nm according to the
The cells were dispensed in a 96-well sterile microplate (3
µL of each compound or doxorubicin (positive control, in DMSO) for 48 h in a serum free medium
prior to the MTT assay. Subsequently, the media were carefully removed, and 40 µL of MTT (2.5
mg/mL) was added to each well and then incubated for an additional 4 h. Purple formazan dye
crystals were solubilized by the addition of 200 µL of DMSO. The absorbance was measured at 570 nm using a SpectraMax Paradigm Multi-Mode microplate reader. The relative cell viability was
experiments were conducted in triplicate. Percent of the cell-growth inhibition (%) and the IC 50 was
calculated using IC 50 calculation software. The concentrations used for calculating the IC 50 depend on

[4] = tested on: α-glucosidase; assay: α-Glucosidase inhibition (anti-diabetic); assay type: biochemical; details: equal concentrations (1000 µg/mL); mean ± SE
[5] = target: acetylcholinesterase (AChE) (Homo sapiens, UniProt P22303); assay: biochemical; details: same concentration (1000 µg/mL); mean ± SE
Sequence of acetylcholinesterase (AChE) (P22303 32-614, species assumed): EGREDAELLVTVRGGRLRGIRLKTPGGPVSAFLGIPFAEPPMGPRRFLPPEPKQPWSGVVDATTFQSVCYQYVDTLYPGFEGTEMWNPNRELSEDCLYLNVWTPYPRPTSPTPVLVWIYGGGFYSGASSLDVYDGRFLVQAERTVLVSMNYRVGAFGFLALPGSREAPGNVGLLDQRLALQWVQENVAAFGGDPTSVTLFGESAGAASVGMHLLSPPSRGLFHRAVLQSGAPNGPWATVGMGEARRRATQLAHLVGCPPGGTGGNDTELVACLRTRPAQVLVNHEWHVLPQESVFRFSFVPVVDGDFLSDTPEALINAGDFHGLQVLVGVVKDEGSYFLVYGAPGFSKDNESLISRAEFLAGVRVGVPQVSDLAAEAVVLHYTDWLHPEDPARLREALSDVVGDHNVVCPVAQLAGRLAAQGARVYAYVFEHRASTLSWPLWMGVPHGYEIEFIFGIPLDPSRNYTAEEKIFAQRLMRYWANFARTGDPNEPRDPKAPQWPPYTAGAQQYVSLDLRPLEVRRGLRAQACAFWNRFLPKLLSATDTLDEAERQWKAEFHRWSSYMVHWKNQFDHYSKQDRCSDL

[6] = tested on: caspase-3; assay: Caspase-3 ELISA in treated A549 cells; assay type: cell-based, human; details: DMSO control 85.92 ± 0.12
[7] = tested on: caspase-3; assay: Caspase-3 ELISA in treated Caco-2 cells; assay type: cell-based, human; details: DMSO control 97.06 ± 0.14
[8] = tested on: Bcl-2; assay: Bcl-2 ELISA in treated A549 cells; assay type: cell-based, human; details: DMSO control 9.83 ± 0.05
[9] = tested on: proteinase enzyme (trypsin); assay: Proteinase enzyme inhibition (anti-inflammatory); assay type: biochemical; details: equal concentrations (1000 µg/mL); mean ± SE
[10] = Iron-reducing power (IRP); details: equal concentrations (1000 µg/mL); mean ± SE, three replicates
Experimental: (§11) All in vitro biological activities were assessed in the tested compounds at equal concentrations (1000 µg/mL). All assays were carried out in triplicate.
In vitro biological activities
(§12) The total antioxidant capacity (TAC) was determined by analyzing the green phosphate/Mo5+ complex at a wavelength (λ) of 695 nm, following the procedure described by Prieto
(§13) et al. Samples (at each concentration) were mixed with a reagent solution containing 0.3 N sulfuric
(§14) acid, 28 mM sodium phosphate, and 4 mM ammonium molybdate. Methanol (80%) was used in place
(§15) of the sample for the blank. The tubes were sealed and incubated in a boiling water bath for 90
(§16) minutes. After cooling to room temperature, the absorbance was measured at 695 nm against the
(§17) blank. Ascorbic acid was used at the same concentrations as a standard. The antioxidant capacity was
(§18) expressed as mg gallic acid equivalent per gram weight.
(§19) The iron reducing power was determined as µg/mL using the method proposed by Oyaizu
(§20) In brief, 1ml of the tested sample (at each concentration) was combined with 1mL of 200mM
(§21) sodium phosphate buffer (pH 6.6) and 1mL of 1% potassium ferricyanide. The mixture was then
(§22) incubated at 50°C for 20 minutes, followed by the addition of 1mL of trichloroacetic acid (10%). After
(§23) centrifugation at 2000rpm for 10 minutes, the upper layer solution (2.5 mL) was mixed with 2.5 mL of double deionized water and 1mL of fresh ferric chloride (0.1%). The absorbance was measured at
(§24) 700nm against a blank prepared without the sample. Ascorbic acid was used at the same
(§25) concentrations as a standard. A high absorbance at 700nm indicates a higher reducing power in the
as §1, §2, §3, §4, §5, §6, §7, §8, §9, §10
(§26) The procedure for the 2,2'-azinobis-(3-ethylbenzothiazoline-6-sulfonic acid) (ABTS) assay
(§27) potassium persulfate solution (2.4 mM). The working solution was prepared by mixing the two stock
(§28) solutions in equal quantities and allowing them to react at room temperature in a dark place for 14
(§29) hours. The solution was then diluted by mixing 1 mL of ABTS solution with 60 mL of methanol to
(§30) was prepared for each assay. The tested samples (at each concentration) were allowed to react with 1
(§31) mL of the ABTS solution, and the absorbance was taken at 734 nm after 7 minutes using a
(§32) spectrophotometer. The ABTS scavenging capacities of the samples were compared with that of
(§33) ascorbic acid (at the same concentrations).

[11] = ABTS radical scavenging assay; details: equal concentrations (1000 µg/mL); mean ± SE
Experimental: as §11
In vitro biological activities
as §12, §13, §14, §15, §16, §17, §18, §19, §20, §21, §22, §23, §24, §25, §1, §2, §3, §4, §5, §6, §7, §8, §9, §10, §26, §27, §28, §29, §30, §31, §32, §33

[12] = Total antioxidant capacity (TAC), phosphomolybdenum method; details: equal concentrations (1000 µg/mL); mean ± SE, three replicates
Experimental: as §11
In vitro biological activities
as §12, §13, §14, §15, §16, §17, §18, §19, §20, §21, §22, §23, §24, §25, §1, §2, §3, §4, §5, §6, §7, §8, §9, §10, §26, §27, §28, §29, §30, §31, §32, §33

[13] = tested on: human colon cancer (Caco-2) cell line; assay: cells; assay type: cell-based; details: for Viability %, Caco-2, 1st concentration: Conc.: 5a 13.45, 5d 12.64, 5e 12.29, 5f 11.81, 7a 12.72, 7f 11.24, DOX 11.50; for Viability %, Caco-2, 2nd concentration: Conc.: 5a 26.91, 5d 25.27, 5e 24.58, 5f 23.63, 7a 25.43, 7f 22.48, DOX 23.00; for Viability %, Caco-2, 3rd concentration: Conc.: 5a 53.81, 5d 50.55, 5e 49.15, 5f 47.26, 7a 50.86, 7f 44.96, DOX 46.00; for Viability %, Caco-2, 4th concentration: Conc.: 5a 107.63, 5d 101.09, 5e 98.31, 5f 94.51, 7a 101.72, 7f 89.93, DOX 91.99; for Viability %, Caco-2, 5th concentration: Conc.: 5a 215.26, 5d 202.19, 5e 196.61, 5f 189.03, 7a 203.44, 7f 179.85, DOX 183.99; for IC50: Homo sapiens, Caco-2, 48 h, MTT, mean ± SE, read-out: Cytotoxic activity IC50, Colon (Caco-2); for Therapeutic Index (TI), Colon (Caco-2): IC50 on normal cells (WI-38)/IC50 on Caco-2
[14] = Cytotoxic activity, MTT assay, normal lung (WI-38); assay type: cell-based; details: human, WI-38 normal lung cells; for IC50 at 48 h: MTT, mean ± SE, read-out: Cytotoxic activity IC50, Normal Lung (WI-38)
[15] = tested on: Bcl-2; assay: Bcl-2 ELISA in treated Caco-2 cells; assay type: cell-based, human; details: DMSO control 7.99 ± 0.08
[16] = tested on: α-amylase; assay: α-Amylase inhibition (anti-diabetic); assay type: biochemical; details: equal concentrations (1000 µg/mL); mean ± SE
[17] = Conc. as printed: 5a 53.81, 5d 50.55, 5e 49.15, 5f 47.26, 7a 50.86, 7f 44.96, DOX 46.00, read-out: Viability %, WI-38, 3rd concentration
[18] = Conc. as printed: 5a 107.63, 5d 101.09, 5e 98.31, 5f 94.51, 7a 101.72, 7f 89.93, DOX 91.99, read-out: Viability %, WI-38, 4th concentration
[19] = Conc.: 5a 13.45, 5d 12.64, 5e 12.29, 5f 11.81, 7a 12.72, 7f 11.24, DOX 11.50, read-out: Viability %, WI-38, 1st concentration
[20] = Conc.: 5a 26.91, 5d 25.27, 5e 24.58, 5f 23.63, 7a 25.43, 7f 22.48, DOX 23.00, read-out: Viability %, WI-38, 2nd concentration
[21] = Conc.: 5a 215.26, 5d 202.19, 5e 196.61, 5f 189.03, 7a 203.44, 7f 179.85, DOX 183.99, read-out: Viability %, WI-38, 5th concentration

Sequence of bovine serum albumin (BSA) (P02769 25-607): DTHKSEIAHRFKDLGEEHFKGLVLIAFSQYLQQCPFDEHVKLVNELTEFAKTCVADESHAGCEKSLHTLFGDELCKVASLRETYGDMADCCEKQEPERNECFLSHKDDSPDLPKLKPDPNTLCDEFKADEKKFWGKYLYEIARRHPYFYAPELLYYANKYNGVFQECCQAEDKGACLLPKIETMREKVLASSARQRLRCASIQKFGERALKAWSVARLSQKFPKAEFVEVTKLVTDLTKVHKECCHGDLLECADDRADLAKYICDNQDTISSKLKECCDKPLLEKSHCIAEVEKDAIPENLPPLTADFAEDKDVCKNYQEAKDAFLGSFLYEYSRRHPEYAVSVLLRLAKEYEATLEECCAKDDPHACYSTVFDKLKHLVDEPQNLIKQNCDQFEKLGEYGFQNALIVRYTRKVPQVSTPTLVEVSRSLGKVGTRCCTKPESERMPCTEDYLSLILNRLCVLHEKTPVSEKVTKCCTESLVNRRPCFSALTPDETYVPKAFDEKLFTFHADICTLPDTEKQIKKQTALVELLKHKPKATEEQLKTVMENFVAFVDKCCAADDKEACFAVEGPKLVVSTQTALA

COc1ccc(Nc2n[nH]c(/N=C/c3ccc(N4CCCCC4)cc3)c2C(=O)Nc2ccc(C)cc2)cc1 [5e]
IC50 [1]: 23.71 ± 0.01 µM | Inhibition (%) Protein Denaturation [2]: 27.33 ± 0.03% | Viability %, A549, 1st concentration [3]: 90.96% | Viability %, A549, 2nd concentration [3]: 79.91% | Viability %, A549, 3rd concentration [3]: 48.51% | Viability %, A549, 4th concentration [3]: 37.08% | Viability %, A549, 5th concentration [3]: 18.60% | IC50 [3]: 47.74 ± 0.2 µM | Inhibition (%) α-Glucosidase [4]: 27.37 ± 0.05% | inhibition at 1000 µg/mL [5]: 42.83 ± 0.03% | Caspase-3 level, Lung (A549) [6]: 214.81 ± 0.30 pg/mL | Caspase-3 level, Colon (Caco-2) [7]: 315.45 ± 0.46 pg/mL | Bcl-2 level, Lung (A549) [8]: 3.93 ± 0.02 ng/mL | Inhibition (%) Proteinase [9]: 23.76 ± 0.03% | Iron-Reducing Power (IRP) [10]: 34.91 ± 0.07 µg/mL | ABTS (%) inhibition [11]: 76.87 ± 0.05% | Total Antioxidant Capacity (TAC) [12]: 53.23 ± 0.20 mg Gallic Acid/g | Viability %, Caco-2, 1st concentration [13]: 70.21% | Viability %, Caco-2, 2nd concentration [13]: 50.65% | Viability %, Caco-2, 3rd concentration [13]: 40.04% | Viability %, Caco-2, 4th concentration [13]: 26.27% | Viability %, Caco-2, 5th concentration [13]: 11.43% | IC50 [13]: 40.99 ± 0.2 µM | Therapeutic Index (TI), Colon (Caco-2) [13]: 15.81 | viability at 48 h [14, 17]: 81% | viability at 48 h [14, 18]: 65.7% | viability at 48 h [14, 19]: 92.9% | viability at 48 h [14, 20]: 87% | viability at 48 h [14, 21]: 38.3% | IC50 at 48 h [14]: 648 ± 7.57 µM | Bcl-2 level, Colon (Caco-2) [15]: 2.46 ± 0.02 ng/mL | Inhibition (%) α-Amylase [16]: 31.83 ± 0.05%

COc1ccc(Nc2n[nH]c(N=Cc3c(C)n(C)n(-c4ccccc4)c3=O)c2C(=O)Nc2ccc(Cl)cc2)cc1 [7f]
IC50 [1]: 21.37 ± 0.01 µM | Inhibition (%) Protein Denaturation [2]: 27.75 ± 0.03% | Viability %, A549, 1st concentration [3]: 96.21% | Viability %, A549, 2nd concentration [3]: 86.06% | Viability %, A549, 3rd concentration [3]: 59.66% | Viability %, A549, 4th concentration [3]: 45.23% | Viability %, A549, 5th concentration [3]: 18.95% | IC50 [3]: 55.74 ± 0.24 µM | Inhibition (%) α-Glucosidase [4]: 27.79 ± 0.05% | Inhibition (%) Acetylcholinesterase [5]: 62.00 ± 0.04% | inhibition at 1000 µg/mL [5]: 62.11 ± 0.04% | Caspase-3 level, Lung (A549) [6]: 244.88 ± 0.34 pg/mL | Caspase-3 level, Colon (Caco-2) [7]: 276.62 ± 0.41 pg/mL | Bcl-2 level, Lung (A549) [8]: 3.45 ± 0.02 ng/mL | Inhibition (%) Proteinase [9]: 24.13 ± 0.03% | Iron-Reducing Power (IRP) [10]: 35.45 ± 0.07 µg/mL | ABTS (%) inhibition [11]: 78.05 ± 0.05% | Total Antioxidant Capacity (TAC) [12]: 54.04 ± 0.20 mg Gallic Acid/g | Viability %, Caco-2, 1st concentration [13]: 81.68% | Viability %, Caco-2, 2nd concentration [13]: 73.16% | Viability %, Caco-2, 3rd concentration [13]: 54.13% | Viability %, Caco-2, 4th concentration [13]: 31.97% | Viability %, Caco-2, 5th concentration [13]: 24.59% | IC50 [13]: 49.01 ± 0.24 µM | Therapeutic Index (TI), Colon (Caco-2) [13]: 11.06 | viability at 48 h [14, 17]: 79.3% | viability at 48 h [14, 18]: 73.3% | viability at 48 h [14, 19]: 95.2% | viability at 48 h [14, 20]: 87.2% | viability at 48 h [14, 21]: 59.2% | IC50 at 48 h [14]: 543 ± 8.52 µM | Bcl-2 level, Colon (Caco-2) [15]: 2.80 ± 0.03 ng/mL | Inhibition (%) α-Amylase [16]: 32.31 ± 0.05%

O=C(Nc1ccccc1)c1c(Nc2ccccc2)n[nH]c1N=Cc1ccc(N2CCCCC2)cc1 [5a]
IC50 [1]: 26.43 ± 0.01 µM | Inhibition (%) Protein Denaturation [2]: 26.83 ± 0.03% | Viability %, A549, 1st concentration [3]: 97.46% | Viability %, A549, 2nd concentration [3]: 87.31% | Viability %, A549, 3rd concentration [3]: 60.91% | Viability %, A549, 4th concentration [3]: 46.48% | Viability %, A549, 5th concentration [3]: 20.20% | IC50 [3]: 68.84 ± 0.14 µM | Inhibition (%) α-Glucosidase [4]: 26.87 ± 0.05% | inhibition at 1000 µg/mL [5]: 42.05 ± 0.03% | Caspase-3 level, Lung (A549) [6]: 184.74 ± 0.26 pg/mL | Caspase-3 level, Colon (Caco-2) [7]: 208.68 ± 0.31 pg/mL | Bcl-2 level, Lung (A549) [8]: 6.55 ± 0.03 ng/mL | Inhibition (%) Proteinase [9]: 23.33 ± 0.03% | Iron-Reducing Power (IRP) [10]: 34.27 ± 0.07 µg/mL | ABTS (%) inhibition [11]: 75.46 ± 0.05% | Total Antioxidant Capacity (TAC) [12]: 52.25 ± 0.19 mg Gallic Acid/g | Viability %, Caco-2, 1st concentration [13]: 82.93% | Viability %, Caco-2, 2nd concentration [13]: 74.41% | Viability %, Caco-2, 3rd concentration [13]: 55.38% | Viability %, Caco-2, 4th concentration [13]: 33.22% | Viability %, Caco-2, 5th concentration [13]: 25.84% | IC50 [13]: 60.29 ± 0.14 µM | Therapeutic Index (TI), Colon (Caco-2) [13]: 7.32 | viability at 48 h [14, 17]: 69.5% | viability at 48 h [14, 18]: 54.2% | viability at 48 h [14, 19]: 81.4% | viability at 48 h [14, 20]: 75.5% | viability at 48 h [14, 21]: 38.3% | IC50 at 48 h [14]: 442 ± 8.8 µM | Bcl-2 level, Colon (Caco-2) [15]: 5.33 ± 0.05 ng/mL | Inhibition (%) α-Amylase [16]: 31.24 ± 0.05%
